How the values were obtained:
RcGPCAT = target: T1, RcGPCAT (Ricinus communis, UniProt B9RK42); experiment: radiometric acyltransferase assay, yeast microsomes; assay type: biochemical; conditions: [14C]GPC 4 mM; pH 7.2 phosphate, 1% BSA, 30 °C
T1 construct: gene GPC1

[1] = substrate: C[N+](C)(C)CCOP(=O)([O-])OC[C@H](O)CO; experiment: as above; assay type: biochemical, Saccharomyces cerevisiae; conditions: 18:1-CoA as acyl donor, pH 7.2 phosphate, 1% BSA, 30 °C, labelled compound

T1 sequence (B9RK42 whole entry, looked up): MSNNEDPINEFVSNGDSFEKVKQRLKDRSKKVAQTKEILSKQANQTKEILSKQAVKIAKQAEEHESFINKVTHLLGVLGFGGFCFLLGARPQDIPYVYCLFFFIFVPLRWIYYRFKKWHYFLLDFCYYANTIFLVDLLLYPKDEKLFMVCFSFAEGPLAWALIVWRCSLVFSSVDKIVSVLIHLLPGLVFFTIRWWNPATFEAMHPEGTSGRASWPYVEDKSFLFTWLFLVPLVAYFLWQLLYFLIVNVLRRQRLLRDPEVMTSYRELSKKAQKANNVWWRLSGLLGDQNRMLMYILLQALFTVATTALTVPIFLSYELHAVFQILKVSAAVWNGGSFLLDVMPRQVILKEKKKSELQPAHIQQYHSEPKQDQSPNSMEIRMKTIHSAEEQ

| Molecule | radiometric acyltransferase assay, yeast microsomes (RcGPCAT) | Km [1] |
| --- | --- | --- |
| CCCCCC[C@@H](O)C/C=C\CCCCCCCC(=O)SCCNC(=O)CCNC(=O)[C@H](O)C(C)(C)COP(=O)(O)OP(=O)(O)OC[C@H]1O[C@@H](n2cnc3c(N)ncnc32)[C@H](O)[C@@H]1OP(=O)(O)O [ricinoleoyl-CoA] | the castor GPCAT accepted all of the acyl-CoAs tested, including ricinoleoyl-CoA |  |
| ScGPCAT (Gpc1p) (Saccharomyces cerevisiae S288C) (protein, full-length, 52 kDa, eight predicted TM helices; pYES-DEST52 (GAL1 promoter) in yeast ale1Δ gpc1Δ, microsomal membranes) MYKLDNNDIDDETNNSVSLTSLLEFLDPIASKVVSKYYHGSHLSKAEQKLRNFEGFRRRKPHHEHDSHHPHHLNRSRSFLQLEDFKVRALQRIRNLDKPLDSIFFKNSSRLEKAFYPFTLFNIFFIGFLMGRFPEWFHVYYTILFFVLMPIRFYTYYKTKNHYFLADFCYFVNMLCLLFIWIFPYSYSLFQSCFAFTFGTLCFAVITWRNSLVIHSIDKTTSCFIHIIPPCVMYVIYHGLPLEYKIERFPGAIIQSELDIKKNILWTSLYYLVWQSLYHYFITLKKSSKIKSGERMTSFEYLTTHQFKNFWAVKLRSPWPMIIYTLSQYFYQLFTMLLCGIWIRYKLAAALFLTIVFLWASHNGATYYIDHYGKNFEKEVDRLRLEVENLQQKLQPDSDAVISDASVNDKDYLNVNRDEDFDDSSSVSSKSD |  | 450 µM |

Reference: PMC5122774, “Cloning of Glycerophosphocholine Acyltransferase (GPCAT) from Fungi and Plants” (The Journal of Biological Chemistry, 2016)
